The MIC is the lowest concentration found to suppress growth.

Assay [1] deals with Aspergillus fumigatus. Kind of assay: Antifungal activity against azole-resistant Aspergillus fumigatus isolate T11 harboring Cyp51A TR/L98H mutant gene assessed as inhibition of fungal growth at 1 mg/l relative to control. The format is functional, organism-based.
Assay [2] relates to Aspergillus fumigatus. The experiment in a line: Antifungal activity against azole-resistant Aspergillus fumigatus isolate R13 harboring Cyp51A TR/L98H mutant gene assessed as inhibition of fungal growth at 1 mg/l relative to control. The format is functional, organism-based.
Assay [3] has as its system Aspergillus fumigatus. Kind of assay: Antifungal activity against azole-susceptible Aspergillus fumigatus isolate CM-237 assessed as fungal growth at 1 mg/l relative to control. The format is functional, organism-based.
Assay [4] deals with Aspergillus fumigatus. Kind of assay: Antifungal activity against azole-resistant Aspergillus fumigatus isolate T18 harboring Cyp51A TR/L98H mutation assessed as inhibition of fungal growth at 1 mg/l relative to control. Format: functional, organism-based.
Assay [5] has as its system Aspergillus fumigatus. The experiment in a line: Antifungal activity against azole-resistant Aspergillus fumigatus isolate T22 harboring Cyp51A TR/L98H mutation assessed as inhibition of fungal growth at 1 mg/l relative to control. The format is functional, organism-based.
Assay [6] has as its system Aspergillus fumigatus. The experiment in a line: Antifungal activity against azole-susceptible Aspergillus fumigatus isolate CM-237 by EUCAST microdilution method. Format: functional.
The next assay deals with Aspergillus niger. Kind of assay: Antifungal activity against Aspergillus niger isolate. Format: functional.
In another assay the test system is Aspergillus nidulans. Kind of assay: Antifungal activity against Aspergillus nidulans isolate. The format is functional.
The test system of the next assay is Aspergillus lentulus. Kind of assay: Antifungal activity against Aspergillus lentulus isolate. Format: functional.
In assay [7] the test system is Aspergillus fumigatus. The experiment in a line: Antifungal activity against Aspergillus fumigatus isolates harboring Cyp51A TR/L98H mutation by EUCAST method. Format: functional.
Assay [8] relates to Aspergillus fumigatus. The experiment in a line: Antifungal activity against azole-resistant Aspergillus fumigatus isolate T11 harboring Cyp51A TR/L98H mutant gene assessed as inhibition of fungal growth at 0.5 mg/l relative to control. Format: functional, organism-based.
Assay [9] concerns Aspergillus fumigatus. Kind of assay: Antifungal activity against azole-resistant Aspergillus fumigatus isolate R13 harboring Cyp51A TR/L98H mutant gene assessed as inhibition of fungal growth at 0.5 mg/l relative to control. Format: functional, organism-based.
For assay [10], the system named is Aspergillus fumigatus. Kind of assay: Antifungal activity against azole-susceptible Aspergillus fumigatus isolate CM-237 assessed as fungal growth at 0.5 mg/l relative to control. Format: functional, organism-based.
The test system of assay [11] is Aspergillus fumigatus. The experiment in a line: Antifungal activity against azole-resistant Aspergillus fumigatus isolate T18 harboring Cyp51A TR/L98H mutation assessed as inhibition of fungal growth at 0.5 mg/l relative to control. The format is functional, organism-based.
The test system of assay [12] is Aspergillus fumigatus. The experiment in a line: Antifungal activity against azole-resistant Aspergillus fumigatus isolate T22 harboring Cyp51A TR/L98H mutation assessed as inhibition of fungal growth at 0.5 mg/l relative to control. The format is functional, organism-based.
Assay [13] has as its system Aspergillus fumigatus. Kind of assay: Antifungal activity against azole-resistant Aspergillus fumigatus isolate R13 harboring Cyp51A TR/L98H mutant gene assessed as inhibition of fungal growth at 4 mg/l relative to control. The format is functional, organism-based.
The subject of assay [14] is Aspergillus fumigatus. Kind of assay: Antifungal activity against azole-resistant Aspergillus fumigatus isolate T11 harboring Cyp51A TR/L98H mutant gene assessed as inhibition of fungal growth at 4 mg/l relative to control. The format is functional, organism-based.
For assay [15], the system named is Aspergillus fumigatus. Kind of assay: Antifungal activity against azole-susceptible Aspergillus fumigatus isolate CM-237 assessed as fungal growth at 4 mg/l relative to control. The format is functional, organism-based.
Assay [16] relates to Aspergillus fumigatus. Kind of assay: Antifungal activity against azole-resistant Aspergillus fumigatus isolate T18 harboring Cyp51A TR/L98H mutation assessed as inhibition of fungal growth at 4 mg/l relative to control. The format is functional, organism-based.
Assay [17] relates to Aspergillus fumigatus. Kind of assay: Antifungal activity against azole-resistant Aspergillus fumigatus isolate T22 harboring Cyp51A TR/L98H mutation assessed as inhibition of fungal growth at 4 mg/l relative to control. Format: functional, organism-based.

Structures are written as SMILES. Converted amounts (≈) assume the structure as drawn. The source made the active and inactive calls. The rule behind the calls is not given here. A value given as a limit tells only on which side of the number the result lay.

As to `C[C@@H](c1ncncc1F)[C@](O)(Cn1cncn1)c1ccc(F)cc1F` [VORICONAZOLE], the inhibition result with Aspergillus fumigatus [1] and with Aspergillus fumigatus [3] was “Active” in each case. Besides, the outcome in the assay with Aspergillus fumigatus [2] was inactive. Moreover, the result in the assay with Aspergillus fumigatus [4] and in the assay on Aspergillus fumigatus [5] was Active. For the same compound, the MIC in the assay on Aspergillus fumigatus [6] came out at 0.5 µg/mL (≈ 1.43 µM); in the assay on Aspergillus niger, 0.5 µg/mL (≈ 1.43 µM); in the assay on Aspergillus nidulans, 4 µg/mL (≈ 11.5 µM); in the assay with Aspergillus lentulus it was 4 µg/mL (≈ 11.5 µM); with Aspergillus fumigatus [7], 2 µg/mL (≈ 5.73 µM).

Take `CC[C@@H]([C@H](C)O)n1ncn(-c2ccc(N3CCN(c4ccc(OC[C@@H]5CO[C@@](Cn6cncn6)(c6ccc(F)cc6F)C5)cc4)CC3)cc2)c1=O` [POSACONAZOLE]: in the assay with Aspergillus fumigatus [8], the inhibition result was “inactive”. For the same compound, the inhibition result in the assay with Aspergillus fumigatus [9], with Aspergillus fumigatus [11] and with Aspergillus fumigatus [12] was “Active” in each case. Also, in the assay with Aspergillus fumigatus [10], the outcome was Active. The minimum inhibitory concentration (MIC) was found to be 0.06 µg/mL (≈ 0.0856 µM) against Aspergillus fumigatus [6]; 0.5 µg/mL (≈ 0.713 µM) with Aspergillus niger; 0.5 µg/mL (≈ 0.713 µM) against Aspergillus nidulans; 0.25 µg/mL (≈ 0.357 µM) with Aspergillus lentulus; 0.25 µg/mL (≈ 0.357 µM) against Aspergillus fumigatus [7].

Turning to `CCC(C)n1ncn(-c2ccc(N3CCN(c4ccc(OCC5COC(Cn6cncn6)(c6ccc(Cl)cc6Cl)O5)cc4)CC3)cc2)c1=O` (stereo not given) [ITRACONAZOLE], the inhibition entry in the assay on Aspergillus fumigatus [13] was “Active”. In addition, the inhibition result with Aspergillus fumigatus [14], in the assay on Aspergillus fumigatus [16] and in the assay with Aspergillus fumigatus [17] was “inactive” in each case. The result in the assay on Aspergillus fumigatus [15] was Active. Besides, the MIC in the assay with Aspergillus fumigatus [6] was 0.25 µg/mL (≈ 0.354 µM); against Aspergillus niger, 2 µg/mL (≈ 2.83 µM); in the assay on Aspergillus nidulans, 1 µg/mL (≈ 1.42 µM); against Aspergillus lentulus it was 0.5 µg/mL (≈ 0.709 µM); against Aspergillus fumigatus [7] it was over 4 µg/mL.

Source of the values: ChEMBL document CHEMBL1671758, “Environmental study of azole-resistant Aspergillus fumigatus and other aspergilli in Austria, Denmark, and Spain” (2010).
